System: NETosis in human neutrophils
Test: NETosis assay (SYTOX green, flow cytometry)
Type: cell-based
Conditions: Neutrophil, two independent NETosis assays, read-out: Average percent inhibition
Procedure: Neutrophils were isolated according to the EasySep Direct Human Neutrophil Isolation Kit. In short, 50 mL of blood sample was drawn in a vacutainer containing K2EDTA from a healthy donor. To the whole blood, the isolation cocktail of 50 μL/mL was added. Then, in the next step 50 μL/mL of RapidSpheres™ was added to the sample. The sample was mixed evenly with the pipette and incubated for 10 minutes at room temperature. After incubation, PBS containing 1 mM EDTA was added at the ratio of 1:1 to the blood. Then the sample tube was incubated for 10 minutes. The enriched cell suspension was transferred into a new tube and RapidSpheres™ were added at 50 μL/mL to this suspension, mixed and incubated for 10 minutes at room temperature. At this step, the enriched cell suspension was carefully collected as a clear fraction into a fresh tube. Then, previous tube was replaced with the fresh tube containing enriched cell suspension. After the final separation, the clear solution of enriched cell suspension was carefully transferred to fresh tube which was ready to use for the experiment. These cells were then subjected to wash twice with plain RPMI 1640 media without Fetal Bovine Serum (FBS) and centrifuged at 1500 rpm for 5 minutes at room temperature. Cell counts were performed on each sample by Invitrogen cell counter. After the cell count, cell density was adjusted according to the experiment and re-suspended in complete RPMI media containing RPMI1640, 2% BSA and 1 mM CaCl2.
Freshly isolated neutrophils from human donor were seeded at a density of 0.5×10^6 cells in 400 μL cell suspension/well in a 24-well plate and cells were pre-incubated with the compound for 30 minutes by adding 50 μL of the 10× concentration to achieve the final 1× concentration of compound (10 μM, 1 μM and 0.1 μM). 1% DMSO was added in control wells. […]
Average percent inhibition for compound 143 was calculated as 2% at 0.1 μM, 30% at 1 μM and 85% at 10 μM in two independent NETosis assays using human neutrophils.

Compound: N[C@@H]1CCCN(C(=O)c2cc3c4c(c2)nc(-c2cc5cccc(Cl)c5n2CC2CC2)n4CCO3)C1 [Compound 143, (R)-(3-aminopiperidin-1-yl)(2-(7-chloro-1-(cyclopropylmethyl)-1H-indol-2-yl)-3,4-dihydro-5-oxa-1,2a-diazaacenaphthylen-7-yl)methanone]
- inhibition at 0.1 µM (at 0.1 μM): 2%
- inhibition at 1 µM (at 1 μM): 30%
- inhibition at 10 µM (at 10 μM): 85%
